Experimental data reported in patent publication US12691056B2 (priority 2020, dated 2026).

Legend:
[1] = aripiprazole intramuscular depot formulation; cited from earlier work
[2] = cited from earlier work
[3] = test system: CYP3A4 and CYP2D6 enzymes; conditions: in vitro studies; cited from earlier work
[4] = test system: CYP1A1, CYP1A2, CYP2A6, CYP2B6, CYP2C8, CYP2C9, CYP2C19, or CYP2E1 enzymes; conditions: cited from earlier work
[5] = Inter-Individual Variability (CV %)
[6] = final combined popPK model, Fixed

Q: With `O=c1ccc2ccc(OCCCCN3CCN(c4cccc(Cl)c4Cl)CC3)cc2[nH]1` [dehydro-aripiprazole] as the compound, how does the “share of the parent drug exposure in plasma” value [1] read?
A: about 29%

Q: What about the “share of aripiprazole AUC in plasma” value ([2]; at steady-state) of the same compound?
A: about 40%

Q: With `O=C1CCc2ccc(OCCCCN3CCN(c4cccc(Cl)c4Cl)CC3)cc2N1` [aripiprazole, 7-[4-[4-(2,3-dichlorophenyl)-1-piperazinyl]butoxy]-3,4-dihydrocarbostyril] as the compound, how does the “lower apparent clearance in CYP2D6 poor metabolizers” value (CYP2D6 PM subjects) read?
A: approximately 50%

Q: And the “IIV on Vc” value [5]?
A: 2.18 (148%)

Q: What about the “IIV on deltoid IM Ka” value [5] of the same compound?
A: 0.237 (48.9%)

Q: And the “IIV on gluteal IM Ka” value [5]?
A: 0.359 (60.0%)

Q: And the “IIV on oral Ka” value (Inter-Individual Variability (CV %), Fixed)?
A: 0.434 (65.9%)

Q: And the “CL Apparent clearance for subjects who are not poor CYP2D6 metabolizers” value [6]?
A: 3.71 Fixed L/hr

Q: What about the “CLpm Apparent clearance for subjects who are poor CYP2D6 metabolizers” value [6] of the same compound?
A: 1.88 Fixed Lhr

Q: And the “IM Ka_BMI Effect of BMI on IH Ka: power for (BMI/28)” value [6]?
A: −0.975 Fixed

Q: And the “IM Ka_male Proportional shift of IM Ka for males” value [6]?
A: 0.346 Fixed

Q: And the “IMKa Gluteal IM 1st order absorption safe constant” value [6]?
A: 0.000904 h⁻¹

Q: And the “Q1 Inter-compartmental clearance 1” value [6]?
A: 0.591 Fixed L/hr

Q: And the “Q2 Inter-compartmental clearance 2” value [6]?
A: 28.8 Fixed L/hr

Q: And the absolute oral bioavailability ([2]; tablet formulation)?
A: about 87%

Q: What about the “enzyme for N-dealkylation” value [3] of the same compound?
A: catalyzed by CYP3A4

Q: What about the “enzymes for dehydrogenation and hydroxylation” value [3] of the same compound?
A: CYP3A4 and CYP2D6 enzymes are responsible

Q: And the “substrate of CYP1A1, CYP1A2, CYP2A6, CYP2B6, CYP2C8, CYP2C9, CYP2C19, or CYP2E1 enzymes” value [4]?
A: not a substrate
